Data from PMC11915375 (ACS Infectious Diseases, 2025).
Where two headings read alike, the source gives them in different places.

Experiments:
T. brucei [1] = conditions: read-out: T. brucei EC50; assay run at NYU; cited from earlier work
[2] = system: Leishmania major amastigotes; conditions: read-out: L. maj EC50; 12a, 12b previously reported compounds; cited from earlier work
T. cruzi = conditions: read-out: T. cruzi EC50; different host cell line (NIH3T3), assay run at NYU; cited from earlier work
T. cruzi CA-I/72 = test: T. cruzi in vitro assay, C2C12 host cell; type: cell-based, Trypanosoma cruzi; conditions: Trypanosoma cruzi, C2C12, read-out: T. cruzi EC50
T. brucei [3] = test: T. brucei proliferation inhibition assay; type: cell-based, Trypanosoma brucei; conditions: Trypanosoma brucei, read-out: T. brucei EC50 ± S.D.
S. mansoni adult worms = test: S. mansoni adult worm phenotypic assay; type: cell-based, Schistosoma mansoni; conditions: scale 0-4
[4] = system: Leishmania major amastigotes; test: Leishmania major amastigote assay; type: cell-based; conditions: Leishmania major, read-out: L. maj EC50
L. donovani = L. donovani in vitro assay; type: cell-based, Leishmania donovani; conditions: Leishmania donovani, read-out: L. don EC50, B10R host cell line

Row | Compound | EC50 [4] [µM] | EC50 (T. brucei [1]) [µM] | EC50 [2] [µM] | EC50 (T. cruzi) [µM] | EC50 (T. cruzi CA-I/72) [µM] | EC50 (T. brucei [3]) [µM] | Adult severity score (10 µM) 5 h (S. mansoni adult worms) | EC50 (L. donovani) [µM]
1 | CN1CCN(S(=O)(=O)c2ccc(-c3ccc4nncc(Nc5ccc(OCc6cccc(F)c6)c(Cl)c5)c4c3)cc2)CC1 [Compound 12a, N-(3-Chloro-4-((3-fluorobenzyl)oxy)phenyl)-6-(4-((4-methylpiperazin-1-yl)sulfonyl)phenyl)cinnolin-4-amine] |  | 0.98 | 1.9 | > 50 |  |  |  | 
2 | CN1CCN(S(=O)(=O)c2ccc(-c3ccc4c(Nc5ccc(OCc6cccc(F)c6)c(Cl)c5)cnnc4c3)cc2)CC1 [Compound 12b, N-(3-Chloro-4-((3-fluorobenzyl)oxy)phenyl)-7-(4-((4-methylpiperazin-1-yl)sulfonyl)phenyl)cinnolin-4-amine] |  | 1 | 2 | 3.1 |  |  |  | 
3 | COc1ccc(Nc2cnnc3cc(-c4ccc(S(=O)(=O)N5CCN(C)CC5)cc4)ccc23)cc1Cl [Compound 17b, N-(3-Chloro-4-methoxyphenyl)-7-(4-((4-methylpiperazin-1-yl)sulfonyl)phenyl)cinnolin-4-amine] | > 1.9 |  |  |  | > 10 | 8.3 ± 0.35 | 4 | 
4 | CN1CCCN(c2ncc(-c3ccc4nncc(Nc5ccc(OC(F)(F)F)cc5)c4c3)cn2)CC1 [Compound 31a, 6-(2-(4-Methyl-1,4-diazepan-1-yl)pyrimidin-5-yl)-N-(4-(trifluoromethoxy)phenyl)cinnolin-4-amine] | > 20 |  |  |  | > 10 | 0.25 ± 0.11 |  | > 10
5 | COc1cnc(Nc2cnnc3ccc(-c4cnc(N5CCCN(C)CC5)nc4)cc23)nc1 [Compound 32a, N-(5-Methoxypyrimidin-2-yl)-6-(2-(4-methyl-1,4-diazepan-1-yl)pyrimidin-5-yl)cinnolin-4-amine] | > 23 |  |  |  | > 10 | 2.9 ± 0.8 |  | 8

Further lines, with some results ahead:

Row | EC50 [4] [µM] | Compound | EC50 (T. brucei [1]) [µM] | EC50 [2] [µM] | EC50 (T. cruzi) [µM] | EC50 (T. cruzi CA-I/72) [µM] | EC50 (T. brucei [3]) [µM] | Adult severity score (10 µM) 5 h (S. mansoni adult worms) | EC50 (L. donovani) [µM]
6 | 17 | CN1CCCN(S(=O)(=O)c2ccc(-c3ccc4nncc(Nc5ncc(Cl)cn5)c4c3)cc2)CC1 [Compound 33a, N-(5-Chloropyrimidin-2-yl)-6-(4-((4-methyl-1,4-diazepan-1-yl)sulfonyl)phenyl)cinnolin-4-amine] |  |  |  | 5.3 | 0.99 ± 0.29 |  | > 10
7 | > 18 | CN1CCCN(S(=O)(=O)c2ccc(-c3ccc4nncc(Nc5ccc(OC(F)(F)F)cc5)c4c3)cc2)CC1 [Compound 34a, 6-(4-((4-Methyl-1,4-diazepan-1-yl)sulfonyl)phenyl)-N-(4-(trifluoromethoxy)phenyl)cinnolin-4-amine] |  |  |  | > 10 | 0.65 ± 0.021 |  | 1.8
